For one series, the target named is T1, CETP (Homo sapiens, UniProt P11597).
T1 construct: made in house; host or cells: CHO cells (serum-free conditioned medium)
T1 sequence (P11597 18-493): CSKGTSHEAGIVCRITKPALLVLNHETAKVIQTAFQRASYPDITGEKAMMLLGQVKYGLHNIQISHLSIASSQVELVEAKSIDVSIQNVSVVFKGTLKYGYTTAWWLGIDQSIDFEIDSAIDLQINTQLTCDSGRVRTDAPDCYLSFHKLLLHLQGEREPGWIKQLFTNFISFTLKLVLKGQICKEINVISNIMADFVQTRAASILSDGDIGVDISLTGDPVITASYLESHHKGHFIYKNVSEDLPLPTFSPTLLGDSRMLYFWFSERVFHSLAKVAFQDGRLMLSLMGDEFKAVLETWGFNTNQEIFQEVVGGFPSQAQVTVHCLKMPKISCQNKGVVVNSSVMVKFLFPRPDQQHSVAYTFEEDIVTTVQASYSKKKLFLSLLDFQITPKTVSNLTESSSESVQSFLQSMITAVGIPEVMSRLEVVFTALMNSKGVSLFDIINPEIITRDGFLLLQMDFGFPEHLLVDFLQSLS
As to the kind of experiment: CETP activity in vitro: transfer of [3H]CE from HDL donor to LDL acceptor particles. It is filed as biochemical. The conditions noted are these: 50% inhibition of [3H]CE transfer from HDL to LDL, 2 hours at 37° C. Summed up:
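CETP from conditioned medium of CETP-transfected CHO cells incubated with [3H]CE-labelled HDL donor and LDL acceptor, pH 7.4 Tris buffer with NaCl, EDTA and 1% BSA, 2 h at 37 °C. LDL precipitated with dextran sulfate/MgCl2, filtered, and transferred radioactivity counted; IC50 reported.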

Read-outs that look alike come from different tables or passages of the source.

As a reminder, the melting point is the temperature of the solid-liquid transition. A word on the IC50: it is the point on the concentration scale where inhibition reaches its midpoint. For the compound `COC(=O)c1c(C(F)F)nc(C(F)(F)F)c(C(=O)Sc2cc(Cl)ccc2Cl)c1CC(C)C` [Compound 163, Methyl 5-{[(2,5-Dichlorophenyl)thio]carbonyl}-2-(difluoromethyl)-4-(2-methylpropyl)-6-(trifluoromethyl)-3-pyridinecarboxylate], the melting point fell in the range of 112.5 to 113.5 °C. Also, the IC50 on CETP (IC50(μm)) came out at 65 µM.
The corresponding values for `COC(=O)c1c(C(F)F)nc(C(F)(F)F)c(C(=O)Sc2c(Cl)cccc2Cl)c1CC(C)C` [Compound 164, Methyl 5-{[(2,6-Dichlorophenyl)thio]carbonyl}-2-(difluoromethyl)-4-(2-methylpropyl)-6-(trifluoromethyl)-3-pyridinecarboxylate] are 109.5 to 112.5 °C and 50 µM.
Consider `COC(=O)c1c(C(F)F)nc(C(F)(F)F)c(C(=O)Sc2ccc(F)cc2Cc2ccc(F)cc2)c1CC(C)C` [Compound 161, Methyl 2-(Difluoromethyl)-4-(2-methylpropyl)-5-{[(2-(4-fluorobenzyl)-4-fluorophenyl)thio]carbonyl}-6-(trifluoromethyl)-3-pyridinecarboxylate], for which the melting point was in the range of 105 to 107 °C. On CETP (read-out: IC50(μm)), the IC50 is 70 µM.
As to `COC(=O)c1c(C(F)F)nc(C(F)(F)F)c(C(=O)Sc2ccccc2OC)c1CC(C)C` [Compound 153, Methyl 2-(Difluoromethyl)-4-(2-methylpropyl)-5-{[(2-methoxyphenyl)thio]carbonyl}-6-(trifluoromethyl)-3-pyridinecarboxylate], the melting point was 100 to 102 °C. The same compound displayed an IC50 on CETP (IC50(μm)) of 100 µM.
Take `COC(=O)c1c(C(F)F)nc(C(F)(F)F)c(C(=O)Sc2ccc(C)cc2C)c1CC(C)C` [Compound 152, Methyl 2-(Difluoromethyl)-5-{[(2,4-dimethylphenyl)thio]carbonyl}-4-(2-methylpropyl)-6-(trifluoromethyl)-3-pyridinecarboxylate]: the melting point lay within 98.5 to 102.5 °C. At CETP (IC50(μm)), this compound came in with an IC50 of 60 µM.
In the case of `COC(=O)c1c(C(F)F)nc(C(F)(F)F)c(C(=O)Sc2ccc(C(C)C)cc2Cc2ccc(F)cc2)c1CC(C)C` [Compound 160, Methyl 2-(Difluoromethyl)-4-(2-methylpropyl)-5-{[(2-(4-fluorobenzyl)-4-isopropylphenyl)thio]carbonyl}-6-(trifluoromethyl)-3-pyridinecarboxylate], the melting point was 86.5 to 91 °C. The IC50 at CETP (read-out: IC50(μm)) came out at 60 µM.
The compound `COC(=O)c1c(C(F)F)nc(C(F)(F)F)c(C(=O)Oc2c(C)cc([N+](=O)[O-])cc2C)c1CC(C)C` [Compound 176, 3-Methyl 5-(2,6-Dimethyl-4-nitrophenyl) 2-(Difluoromethyl)-4-(2-methylpropyl)-6-(trifluoromethyl)-3,5-pyridicarboxylate] showed a melting point of 96 to 97 °C.
With `COC(=O)c1c(C(F)F)nc(C(F)(F)F)c(C(=O)Sc2cccc(OC)c2)c1CC(C)C` [Compound 154, Methyl 2-(Difluoromethyl)-4-(2-methylpropyl)-5-{[(3-methoxyphenyl)thio]carbonyl}-6-(trifluoromethyl)-3-pyridinecarboxylate], the melting point is 87 to 88.5 °C. The same compound registered an IC50 on CETP (IC50(μm)) of 100 µM.
The corresponding values for `COC(=O)c1c(C(F)F)nc(C(F)(F)F)c(C(=O)Sc2ccc(C)cc2C)c1CC(C)C` [Compound 158, Methyl 2-(Difluoromethyl)-5-{[(2,4-dimethyl-phenyl)thio]carbonyl}-4-(2-methylpropyl)-6-(trifluoromethyl)-3-pyridinecarboxylate] are 96 to 99 °C and 100 µM.
With `COC(=O)c1c(C(F)F)nc(C(F)(F)F)c(C(=O)Sc2ccc(C(C)(C)C)cc2)c1CC(C)C` [Compound 156, Methyl 5-{[(4-t-Butylphenyl)thio]carbonyl}-2-(difluoromethyl)-4-(2-methylpropyl)-6-(trifluoromethyl)-3-pyridinecarboxylate], the melting point is 60.5 to 62.5 °C. Further, the IC50 on CETP (read-out: IC50(μm)) amounted to 100 µM.
In the same order, the values of `COC(=O)c1c(OC(=O)N(c2ccccc2)c2ccccc2)cc(C(F)(F)F)nc1C(F)(F)F` [Compound 25, Methyl 2,6-Bis(trifluoromethyl)-4-(diphenylaminocarbonyloxy)-3-pyridinecarboxylate] are 114 to 116 °C and 40 µM.
The corresponding values for `COC(=O)c1c(C(F)F)nc(C(F)(F)F)c(C(=O)Oc2ccccc2OC)c1CC(C)C` [Compound 172, 3-Methyl 5-(2-Methoxyphenyl) 2-(Difluoromethyl)-4-(2-methylpropyl)-6-(trifluoromethyl)-3,5-pyridicarboxylate] are 73 to 74.5 °C and greater than 100 µM.
Compound `COC(=O)c1c(C(F)F)nc(C(F)(F)F)c(C(=O)Oc2ccccc2[N+](=O)[O-])c1CC(C)C` [Compound 166, 3-Methyl 5-(2-Nitrophenyl) 2-(Difluoromethyl)-4-(2-methylpropyl)-6-(trifluoromethyl)-3,5-pyridicarboxylate] came in with a melting point of 102.5 to 105.5 °C. Also, the IC50 at CETP (read-out: IC50(μm)) was greater than 100 µM.
As for `COC(=O)c1c(C(F)F)nc(C(F)(F)F)c(C(=O)Sc2ccc(Cl)cc2)c1CC(C)C` [Compound 162, Methyl 5-{[(4-chlorophenyl)thio]carbonyl}-2-(difluoromethyl)-4-(2-methylpropyl)-6-(trifluoromethyl)-3-pyridinecarboxylate], the melting point fell in the range of 94 to 96.5 °C. Also, on CETP (IC50(μm)), the IC50 came out at 50 µM.
In the case of `COC(=O)c1c(C(F)F)nc(C(F)(F)F)c(C(=O)Sc2ccc(C(C)(C)C)cc2C(C)(C)C)c1CC(C)C` [Compound 155, Methyl 2-(Difluoromethyl)-5-{[(2,4-di-t-butylphenyl)thio]carbonyl}-4-(2-methylpropyl)-6-(trifluoromethyl)-3-pyridinecarboxylate], the melting point lay in the range of 115.5 to 120.5 °C. Also, the half-maximal inhibitory concentration (IC50) on CETP (read-out: IC50(μm)) amounted to 50 µM.
In turn, `COC(=O)c1c(C(F)F)nc(C(F)(F)F)c(C(=O)Sc2cc(C(C)(C)C)cc(C(C)(C)C)c2)c1CC(C)C` [Compound 151, Methyl 2-(Difluoromethyl)-5-{[(3,5-di-t-butylphenyl)thio]carbonyl}-4-(2-methylpropyl)-6-(trifluoromethyl)-3-pyridinecarboxylate] showed a melting point of 102.5 to 108.5 °C. Besides, the IC50 against CETP (IC50(μm)) turned out to be 60 µM.
The compound `COC(=O)c1c(C(F)F)nc(C(F)(F)F)c(C(=O)Oc2cc(C)cc(C)c2)c1CC(C)C` [Compound 174, 3-Methyl 5-(3,5-Dimethylphenyl) 2-(Difluoromethyl)-4-(2-methylpropyl)-6-(trifluoromethyl)-3,5-pyridicarboxylate] came in with a melting point of 90.5 to 94 °C. On CETP (IC50(μm)), this compound displayed an IC50 of 60 µM.
In turn, `COC(=O)c1c(C(F)F)nc(C(F)(F)F)c(C(=O)Sc2ccc(SC)cc2)c1CC(C)C` [Compound 159, Methyl 2-(Difluoromethyl)-4-(2-methylpropyl)-5-{[(4-methylthiophenyl)thio]carbonyl}-6-(trifluoromethyl)-3-pyridinecarboxylate] gave a melting point of 112 to 114 °C. This compound also displayed an IC50 against CETP (IC50(μm)) of 80 µM.
`COC(=O)c1c(C(F)F)nc(C(F)(F)F)c(C(=O)Oc2ccc(C)cc2C)c1CC(C)C` [Compound 177, 3-Methyl 5-(2,4-Dimethylphenyl) 2-(Difluoromethyl)-4-(2-methylpropyl)-6-(trifluoromethyl)-3,5-pyridicarboxylate] displayed a melting point of 95 to 99 °C. The IC50 at CETP (read-out: IC50(μm)) was 70 µM.
In the case of `COC(=O)c1c(C(F)F)nc(C(F)(F)F)c(C(=O)Oc2cc(OC)c(OC)c(OC)c2Cc2ccc(F)cc2)c1CC(C)C` [Compound 171, 3-Methyl 5-[2-(4-Fluorobenzyl)-3,4,5-(trimethoxy)phenyl]2-(Difluoromethyl)-4-(2-methylpropyl)-6-(trifluoromethyl)-3,5-pyridicarboxylate], the melting point was in the range of 131.5 to 133.5 °C. Besides, the IC50 on CETP (read-out: IC50(μm)) came to 70 µM.
Compound `COC(=O)c1c(C(F)F)nc(C(F)(F)F)c(C(=O)Oc2ccc(Cl)cc2)c1CC(C)C` [Compound 173, 3-Methyl 5-(4-Chlorophenyl) 2-(Difluoromethyl)-4-(2-methylpropyl)-6-(trifluoromethyl)-3,5-pyridicarboxylate] registered a melting point of 81.5 to 82.5 °C. 45 µM corresponded to half-maximal inhibition at CETP (IC50(μm)) (IC50).
For the compound `COC(=O)c1c(C(F)F)nc(C(F)(F)F)c(C(=O)Oc2cc(C(C)(C)C)cc(C(C)(C)C)c2)c1CC(C)C` [Compound 167, 3-Methyl 5-(3,5-Di-t-butylphenyl) 2-(Difluoromethyl)-4-(2-methylpropyl)-6-(trifluoromethyl)-3,5-pyridicarboxylate], the melting point lay in the range of 100 to 103.5 °C. For the same compound, the IC50 on CETP (read-out: IC50(μm)) came to 60 µM.

These data come from US6794396B2, “Substituted pyridines useful for inhibiting cholesteryl ester transfer protein activity” (Pharmacia Corporation, priority 1998, dated 2004).
